Data as given in patent publication US20170165237A1 (DRUGGABILITY TECHNOLOGIES IP HOLDCO LIMITED, priority 2014, published 2017).

Experiments:
[1] = cited from earlier work
CYP3A4 = CYP3A4 (Homo sapiens, UniProt P08684); conditions: cited from earlier work
P-gp = P-gp (Homo sapiens, UniProt P08183); conditions: cited from earlier work
in vitro = conditions: PAMPA, pH 7
Protocol: The receiver compartment was phosphate buffered saline (pH 7.0) supplemented with 1% sodium dodecyl sulfate. The assay was performed at room temperature; incubation time was 1-24 hours. The concentration in the receiver compartment was determined by UV-VIS spectrophotometry (Thermo Scientific Genesys S10).

[2] = topical, psoriasis; cited from earlier work
[3] = cited from earlier work; remark: listed apart in the source
[4] = in vivo; cited from earlier work
[5] = subconjunctival, 5 subjects; cited from earlier work
[6] = in vivo; cited from earlier work; remark: listed apart in the source
human plasma proteins [7] = biological target: human plasma proteins (Homo sapiens, UniProt P02768); conditions: serum albumin; cited from earlier work
human plasma proteins [8] = conditions: cited from earlier work
angiogenesis pathways = conditions: topical 1%; cited from earlier work
[9] = single dose [14C] Sirolimus oral solution, healthy volunteers

Chain of CYP3A4 (P08684 whole entry): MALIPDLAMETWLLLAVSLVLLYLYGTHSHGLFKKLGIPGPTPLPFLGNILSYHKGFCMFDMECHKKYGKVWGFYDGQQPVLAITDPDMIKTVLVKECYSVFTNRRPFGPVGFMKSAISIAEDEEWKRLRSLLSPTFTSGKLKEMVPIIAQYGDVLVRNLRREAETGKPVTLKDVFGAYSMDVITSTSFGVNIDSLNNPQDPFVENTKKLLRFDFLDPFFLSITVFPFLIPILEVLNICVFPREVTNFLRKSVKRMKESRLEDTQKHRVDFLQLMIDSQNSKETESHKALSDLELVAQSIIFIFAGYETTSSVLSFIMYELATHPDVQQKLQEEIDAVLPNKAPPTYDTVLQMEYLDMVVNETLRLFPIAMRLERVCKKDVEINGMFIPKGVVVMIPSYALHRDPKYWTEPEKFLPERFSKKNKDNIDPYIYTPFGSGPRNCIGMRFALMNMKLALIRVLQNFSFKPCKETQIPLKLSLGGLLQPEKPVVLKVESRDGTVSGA
Chain of P-gp (P08183 whole entry): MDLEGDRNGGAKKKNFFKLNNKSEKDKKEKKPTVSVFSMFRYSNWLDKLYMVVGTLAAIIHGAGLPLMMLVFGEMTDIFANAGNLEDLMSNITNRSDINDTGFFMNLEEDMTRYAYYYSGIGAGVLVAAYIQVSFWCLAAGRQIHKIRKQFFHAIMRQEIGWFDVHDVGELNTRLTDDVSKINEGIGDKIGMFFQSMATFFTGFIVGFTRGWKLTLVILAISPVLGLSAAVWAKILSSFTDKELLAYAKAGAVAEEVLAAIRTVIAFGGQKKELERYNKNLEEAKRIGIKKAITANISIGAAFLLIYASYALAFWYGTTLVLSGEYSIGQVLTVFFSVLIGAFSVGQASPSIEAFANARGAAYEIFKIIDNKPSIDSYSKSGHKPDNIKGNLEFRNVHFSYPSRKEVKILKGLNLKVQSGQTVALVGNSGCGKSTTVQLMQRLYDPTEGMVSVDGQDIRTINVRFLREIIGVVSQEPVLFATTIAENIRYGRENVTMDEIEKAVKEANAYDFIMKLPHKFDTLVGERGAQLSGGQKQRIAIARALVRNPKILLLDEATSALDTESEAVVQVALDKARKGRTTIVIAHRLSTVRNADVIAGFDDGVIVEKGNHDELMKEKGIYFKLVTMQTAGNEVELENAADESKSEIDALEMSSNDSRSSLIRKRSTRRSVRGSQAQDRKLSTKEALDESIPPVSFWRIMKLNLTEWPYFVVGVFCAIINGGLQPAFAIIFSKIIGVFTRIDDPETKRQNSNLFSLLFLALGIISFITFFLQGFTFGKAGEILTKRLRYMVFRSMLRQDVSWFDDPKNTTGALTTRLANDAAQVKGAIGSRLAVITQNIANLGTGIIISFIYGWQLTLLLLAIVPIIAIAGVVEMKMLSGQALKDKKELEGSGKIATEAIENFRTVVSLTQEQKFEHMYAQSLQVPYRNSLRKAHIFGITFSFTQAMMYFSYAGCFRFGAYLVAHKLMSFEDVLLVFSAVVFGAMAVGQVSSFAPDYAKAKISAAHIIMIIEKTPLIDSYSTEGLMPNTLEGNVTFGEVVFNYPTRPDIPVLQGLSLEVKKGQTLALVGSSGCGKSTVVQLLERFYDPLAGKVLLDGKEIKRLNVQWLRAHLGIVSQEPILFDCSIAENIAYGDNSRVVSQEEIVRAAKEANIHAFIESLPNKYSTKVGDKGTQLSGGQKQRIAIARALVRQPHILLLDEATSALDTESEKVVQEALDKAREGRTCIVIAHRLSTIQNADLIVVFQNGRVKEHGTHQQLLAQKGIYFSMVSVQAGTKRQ
Chain of human plasma proteins (Homo sapiens, UniProt P02768) (P02768 25-609): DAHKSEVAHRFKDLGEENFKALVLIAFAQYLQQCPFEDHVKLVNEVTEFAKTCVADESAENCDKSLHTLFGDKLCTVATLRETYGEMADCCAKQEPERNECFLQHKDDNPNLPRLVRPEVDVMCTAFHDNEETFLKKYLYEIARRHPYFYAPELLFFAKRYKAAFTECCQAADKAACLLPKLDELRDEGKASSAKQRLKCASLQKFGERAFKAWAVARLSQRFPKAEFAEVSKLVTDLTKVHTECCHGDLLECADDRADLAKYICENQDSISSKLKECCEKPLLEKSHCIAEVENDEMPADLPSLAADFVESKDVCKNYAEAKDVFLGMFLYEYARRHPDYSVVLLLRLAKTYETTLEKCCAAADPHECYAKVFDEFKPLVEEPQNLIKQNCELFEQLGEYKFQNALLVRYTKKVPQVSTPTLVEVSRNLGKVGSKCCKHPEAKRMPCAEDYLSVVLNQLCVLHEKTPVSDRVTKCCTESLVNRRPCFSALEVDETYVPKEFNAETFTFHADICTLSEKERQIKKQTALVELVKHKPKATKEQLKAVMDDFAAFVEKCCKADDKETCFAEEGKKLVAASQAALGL

Papp (in vitro): < 1 ×10⁻⁶ cm/s
Structure (SMILES): CO[C@H]1C[C@@H]2CC[C@@H](C)[C@@](O)(O2)C(=O)C(=O)N2CCCC[C@H]2C(=O)O[C@H]([C@H](C)C[C@@H]2CC[C@@H](O)[C@H](OC)C2)CC(=O)[C@H](C)/C=C(\C)[C@@H](O)[C@@H](OC)C(=O)[C@H](C)C[C@H](C)/C=C/C=C/C=C/1C [Sirolimus, (3 S,6R,7E,9R,10R, 12R, 14S, 15E, 17E, 19E,21 S,23 S,26R,27R,34aS)9,10,12,13,14,21,22,23,24, 25,26,27,32,33,34, 34a-hexadecahydro-9,27-dihydroxy-3-[(1R)-2[(1 S,3R,4R)-4-hydroxy-3-methoxycyclohexyl]-1-methylethyl]-10,21-dimethoxy6,8,12,14,20,26-hexamethyl-23,27-epoxy-3H-pyrido[2,1-c][1,4]oxaazacyclohentriacontine1,5,11,28,29 (4H,6H,31H)-pentone]
systemic absorption after topical application ([1]; detection >1.0 ng/mL): No detectable systemic absorption
effect on facial angiofibromas ([1]; topical): causes regression
substrate for CYP3A4 (CYP3A4): substrate
substrate for P-gp (P-gp): substrate
clinical score [2]: significant reduction
plaque thickness and erythema [2]: did not show significant improvement
increase of mean total exposure (AUC) by high-fat meal compared with fasting ([3]; healthy subjects, high-fat meal (861.8 kcal, 54.9% kcal from fat)): 23 to 35%
mean±SD terminal elimination half-life (t1/2) ([3]; multiple dosing, stable renal transplant patients): about 62±16 hours
contribution to immunosuppressive activity in human whole blood ([3]; parent vs metabolites, human whole blood): more than 90%
radioactivity excreted in urine [3, 9]: 2.2%
radioactivity recovered from the feces [3, 9]: 91%
immune-mediated events in autoimmune disease models [4]: suppresses
tolerability [5]: well tolerated
allograft survival [6]: prolongs
bound mainly to serum albumin (human plasma proteins [7]): 97%
bound to human plasma proteins (human plasma proteins [8]): approximately 92%
angiogenesis pathways; regeneration and revascularization of photocoagulated blood vessels (angiogenesis pathways): can suppress
